Results reported in PubChem BioAssay AID504313 (Emory University Molecular Libraries Screening Center, 2011).
pIC50: −log10 of the molar value. Active and inactive are the calls of the source. The rule behind the calls is not given here.

target: X-box-binding protein 1 (Homo sapiens) (UniProt P17861); assay: XBP1 reporter suppression in cells – counter-screen, dose response (AID 504313); details: XBP1 reporter cell assay, percent of control;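 note: CHO cells carrying an XBP1 reporter stimulated with tunicamycin; potency is for inhibition of the tunicamycin-induced reporter signal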

SMILES | IC50 | pIC50
COc1ccc(C2CC(c3c(-c4ccccc4)c4cc(Cl)ccc4[nH]c3=O)=NN2S(C)(=O)=O)cc1OC (centres undefined) | inactive | –
NC(=O)c1cc(-c2ccccc2)nc(N2CCCCCC2)n1 | inactive | –
Nc1ccc2oc(-c3cc(Br)ccc3Cl)nc2c1 | – | 6.41
NC(=O)CC(NC(=O)Cc1cccc2ccccc12)c1ccc(NCCOc2ccccc2)c([N+](=O)[O-])c1 (centres undefined) | > 10 µM (inactive) | –
O=C(OCn1ncc(Cl)c(Cl)c1=O)c1ccc(C(F)(F)F)cc1 | > 10 µM (inactive) | –
COc1ccc(N=c2oc3ccc(OC)cc3cc2-c2nc3ccccc3[nH]2)cc1 | inactive | –
COc1ccc(-c2nn(-c3ccccc3)cc2/C=N/N2C(=O)CSC2=S)cc1 | > 10 µM (inactive) | –
CC(C)(C)C1C/C(=C/c2ccco2)C(=O)/C(=C/c2ccco2)C1 (centres undefined) | > 10 µM (inactive) | –
COc1ccc(C(C(=O)NC2CCCCC2)N(C(=O)CCl)c2cccc(Cl)c2)cc1 (centres undefined) | inactive | –
CCC(C)NC(=O)c1c(N)n(CC2CCCO2)c2nc3ccccc3nc12 (centres undefined) | > 10 µM (inactive) | –
CC(C)(C)C1CCC(C(=O)OCC(=O)c2ccc[nH]2)CC1 (centres undefined) | inactive | –
CCn1c(=O)c(C(=O)Nc2nc3ccccc3[nH]2)c(O)c2ccccc21 | inactive | –
C=C1C(=O)O[C@H]2C[C@@H](C)[C@@H]3C=CC(=O)[C@@]3(C)C[C@H]12 | inactive | –
CCCCCCn1c(CN2CCN(Cc3ccccc3)CC2)nc2c1c(=O)n(C)c(=O)n2C | > 10 µM (inactive) | –
O=c1c(Cl)c(Cl)cnn1Cc1nnc(-c2ccccc2Br)o1 | inactive | –
CCOc1cc(S(=O)(=O)Nc2ccc(CC)cc2)ccc1Cl | inactive | –
C=C1C(=O)O[C@@H]2C[C@@H](C)[C@@H]3C4OC4C(=O)[C@@]3(C)[C@@H](O)[C@H]12 (some centres undefined) | – | 5.30
CC(C)C[C@H](NC(=O)OC(C)(C)C)c1nnc(SCC(=O)Nc2ccc(Br)cc2)o1 | – | 5.31
Cc1ccn2cc(-c3cc4ccccc4oc3=O)nc2c1 | inactive | –
OC(CNCC(c1ccc(Cl)cc1Cl)c1c[nH]c2ccccc12)c1ccccc1 (centres undefined) | inactive | –
CCOc1cc(C)c(-c2onc(C(F)(F)F)c2-c2csc(C)n2)c(O)c1 | inactive | –
CS(=O)(=O)c1nc(-c2ccco2)cc(C(F)(F)F)n1 | inactive | –
COc1ccc(/C=C/C(=O)NC(=S)NNC(=O)c2cccnc2)cc1 | > 10 µM (inactive) | –
COc1cc(CNCc2ccccn2)ccc1OCc1ccc(Cl)cc1Cl | > 10 µM (inactive) | –
CCN1C/C(=C/c2ccc(OC)c(O)c2)C(=O)/C(=C/c2ccc(OC)c(O)c2)C1 | inactive | –

SMILES | IC50 | pIC50
CC(C)Oc1ccc(CNC(=O)CC(c2ccccc2)c2cc(Cl)ccc2O)cc1 (centres undefined) | > 10 µM (inactive) | –
FC(F)(F)c1cccc(CN2CCC(c3cc(-c4cccs4)n[nH]3)CC2)c1 | > 10 µM (inactive) | –
COC(=O)CS(=O)(=O)c1nnc([C@H](Cc2ccccc2)NC(=O)OC(C)(C)C)o1 | inactive | –
CC(=O)Nc1ccc(NC2=Nc3ccccc3N3C2=Nc2c(c(C)nn2-c2ccccc2)C3c2ccccc2)cc1 (centres undefined) | inactive | –
CCOc1ccc(C2C=C(c3ccc(C)cc3)Nc3nnnn32)cc1 (centres undefined) | > 10 µM (inactive) | –
COc1ccc(NC(=O)/C(Cl)=C(/Cl)S(=O)Cc2ccc(Cl)cc2)cn1 (centres undefined) | – | 5.49
O=C(Nc1ccc(F)cc1)Nc1ccc(N2CCCC2)c(S(=O)(=O)Nc2ccccc2Cl)c1 | inactive | –
Nc1c(C(=O)Nc2ccccc2F)sc2nc(-c3cccnc3)ccc12 | > 10 µM (inactive) | –
C=CCn1c(O)c(C(CC)=Nc2ccc(N(CC)CC)cc2)c(=O)[nH]c1=O | inactive | –
Cc1ccc(-c2[nH]ncc2/C=N/n2c(COc3ccccc3)nc3ccccc3c2=O)cc1 | inactive | –
CC1(C)C[C@H]2C=C(C=O)[C@]3(C=O)C[C@]3(C)[C@H]2C1 | – | 5.63
CCCOc1ccccc1C1CC(=O)NC(C)=C1C(=O)OCC(C)C (centres undefined) | inactive | –
Cc1cc(Cl)ccc1OCc1n[nH]c(=S)n1C1CCCCC1 | inactive | –
CCOC(=O)c1cc(-c2ccccc2)nc2c1c(C)nn2-c1ccccn1 | > 10 µM (inactive) | –
COc1ccc(/C=C2\SC(=S)N(CCCC(=O)Nc3ccc(O)cc3)C2=O)cc1 | – | > 6.80
CNC(=O)c1nnsc1S(=O)(=O)c1ccc(Cl)cc1 | inactive | –
COc1ccc(OCc2cccc(C(=O)Nn3cc([N+](=O)[O-])cn3)c2)cc1 | – | 6.48
CCCCn1c(NS(=O)(=O)c2ccc(C)cc2)c(S(=O)(=O)c2ccccc2)c2nc3ccccc3nc21 | > 10 µM (inactive) | –
C=C1C(=O)C=C2CN(C(=O)c3ccccc3)[C@@](Cc3ccc(F)cc3)(C(=O)OC)[C@@H]12 | – | 5.99
O=S(=O)(/C(=C/c1ccc(C(F)(F)F)cc1)c1nc2ccccc2[nH]1)c1ccccc1 | – | 5.65
C=CS(=O)(=O)c1ccc(Oc2ccc(S(=O)(=O)C=C)cc2)cc1 | – | 6.00
Cc1ccc2c(c1)c1c(n2CC(O)Cn2c(C)nc3ccccc32)CCCC1 (centres undefined) | inactive | –
O=C1C(C2=NC(c3ccccn3)C3C(=O)N(c4ccc(OC(F)(F)F)cc4)C(=O)C23)=C(O)c2ccccc21 (centres undefined) | inactive | –
CCCCCn1c(=O)c(C(=O)Nc2nc3ccccc3[nH]2)c(O)c2ccccc21 | – | 5.37
